Experimental data: patent publication US20100029654A1, “CARDIOVASCULAR COMPOSITIONS AND USE OF THE SAME FOR THE TREATMENT OF ALZHEIMER'S DISEASE” (MOUNT SINAI SCHOOL OF MEDICINE, priority 2006, published 2010)
Counter-ions that a name gives are not always drawn. Like-named read-outs stand apart in the source and are kept apart here.

What was measured:
Aβ1-42 [1] = test: Aβ1-42 content in conditioned medium of primary cortico-hippocampal neuron cultures from Tg2576 mice (ELISA; primary and secondary dose-response screening); type: cell-based, mouse; details: for Ab1-42 (% of ctl) / activity at 100 µM: drug 100 μM; for activity at 100 µM: Mus musculus, Neuron, 24 h, read-out: Ab1-42 (% of ctl); for reducing Aβ1-42: <85% of ctl
Procedure, shortened: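 Primary cortico-hippocampal neurons from embryonic Tg2576 mouse brain were seeded on poly-D-lysine-coated 96-well plates at 1.0×10^5 cells per well in serum-free Neurobasal medium with 2% B27, 0.5 mM L-glutamine and 1% penicillin-streptomycin. For primary screening, duplicate wells received 100 μM drug (1% DMSO final). Vehicle-treated cultures served as controls, and Aβ1-42 in conditioned medium was measured by commercial ELISA.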

[2] = tested on: primary cortico-hippocampal neuron cultures; test: lactate dehydrogenase (LDH) activity assay in parallel neuron cultures; details: for LDH at E-5M % of change: drug at E-5M
Method: For in vitro treatments drugs available from “The Spectrum Collection” in stocks of 10 mM in DMSO were applied directly to cultures to the desired concentrations (final 1% DMSO); control primary neuron cultures from Tg2576 embryos were treated with vehicle resulting in a final 1% DMSO.
Cell viability was assessed using a commercial available LDH assay kit according to the manufacture's instruction (Promega).

Aβ1-40 = Aβ1-40 content in conditioned medium of primary cortico-hippocampal neuron cultures from Tg2576 mice (ELISA; primary and secondary dose-response screening); type: cell-based, mouse; details: for activity at 100 µM / EC50: Mus musculus; for activity at 100 µM: 24 h, read-out: Ab1-40 (% of ctl); for activity at 100 µM / Ab1-40 (% of ctl): drug 100 μM; for EC50: secondary dose-response screening 0.01-100 μM, 24 hours, read-out: EC50 (molar) Aβ1-40; for reduced Aβ1-40: <85% of ctl
Procedure, shortened: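 Primary cortico-hippocampal neurons from embryonic Tg2576 mice were plated at 1.0×10^5 cells per well on poly-D-lysine-coated 96-well plates in Neurobasal with 2% B27, 0.5 mM L-glutamine and 1% penicillin-streptomycin. Cultures received drug in 1% DMSO, and Aβ1-40 in the conditioned medium was measured by BioSource ELISA 24 hours after treatment, relative to vehicle controls.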

[3] = tested on: primary cortico-hippocampal neuron cultures; test: MTT in primary screening
Aβ1-42 [4] = test: Aβ1-42 content in conditioned medium of primary cortico-hippocampal neuron cultures from Tg2576 mice (ELISA; primary and secondary dose-response screening); type: cell-based, mouse; details: Mus musculus, 24 h; for activity at 100 µM: primary screening, drug 100 μM, Tg2576 neuron cultures, table sorted by Aβ1-42, read-out: Ab1-42 (% of ctl); for EC50: Neuron, read-out: EC50 (molar) Aβ1-42
[5] = Primary Screening, table sorted by Aβ1-40
[6] = primary screening, table sorted by Aβ1-42
[7] = primary screening, Tg2576 neuron cultures, table sorted by Aβ1-42
[8] = Neuron, Primary Screening, table sorted by Aβ1-40
[9] = Neuron, primary screening, Tg2576 neuron cultures, table sorted by Aβ1-42
[10] = secondary dose-response screening 0.01-100 μM, 24 hours

Row | SMILES | Ab1-42 (% of ctl) (Aβ1-42 [1]; [5]) | LDH (% of ctl) [2, 5] | LDH (% of ctl) [2, 6] | activity at 100 µM (Aβ1-40; [7]) [%] | Ab1-40 (% of ctl) (Aβ1-40; [5]) | MTT (% of ctl) [3, 5] | MTT (% of ctl) [3, 6] | activity at 100 µM (Aβ1-42 [4]) [%] | activity at 100 µM (Aβ1-42 [1]; [5]) [%] | activity at 100 µM (Aβ1-42 [1]; [7]) [%] | reducing Aβ1-42 (Aβ1-42 [1]; primary screening) | LDH at E-5M % of change [2] [%] | activity at 100 µM (Aβ1-40; [8]) [%] | activity at 100 µM (Aβ1-40; [9]) [%] | EC50 (Aβ1-40; Neuron) [µM] | reduced Aβ1-40 (Aβ1-40; primary screening) | EC50 (Aβ1-42 [4]; conditioned medium of primary cortico-hippocampal neuron cultures from Tg2576 embryos, 24 hours after treatment, relative to vehicle (1% DMSO) control) [µM] | EC50 (Aβ1-42 [4]; [10]) [µM]
1 | CC(COc1ccccc1)N(CCCl)Cc1ccccc1 (stereo not shown) [Phenoxybenzamine Hydrochloride] | 90.7 % of ctl | 81.3 % of ctl | 81.3 % of ctl | 87.5 | 87.5 % of ctl | 72.8 % of ctl | 72.8 % of ctl | 90.7 | – | – | – | – | – | – | – | – | – | –
2 | COc1cc2nc(N3CCN(C(=O)c4ccco4)CC3)nc(N)c2cc1OC [Prazosin Hydrochloride] | – | 260.2 % of ctl | 260.2 % of ctl | – | – | 99.9 % of ctl | 99.9 % of ctl | – | 23.2 | 23.2 | useful in reducing Aβ1-42 | 5.0 | 7.6 | 7.6 | 571 | reduced Aβ1-40 | 67.6 | 67.6
3 | COC(=O)[C@H]1[C@H]2C[C@@H]3c4[nH]c5cc(OC)ccc5c4CCN3C[C@H]2C[C@@H](OC(=O)c2cc(OC)c(OC)c(OC)c2)[C@@H]1OC [Reserpine] | – | 157.8 % of ctl | 157.8 % of ctl | – | – | 87.2 % of ctl | 87.2 % of ctl | – | 38.7 | 38.7 | useful in reducing Aβ1-42 | −3.4 | 24.7 | 24.7 | 56.6 | reduced Aβ1-40 | – | 902
4 | C=C(CC)C(=O)c1ccc(OCC(=O)O)c(Cl)c1Cl [Ethacrynic Acid] | – | 101.5 % of ctl | 101.5 % of ctl | – | – | 109.9 % of ctl | 109.9 % of ctl | – | 1.8 | 1.8 | useful in reducing Aβ1-42 | 10.0 | 4.4 | 4.4 | 21 | reduced Aβ1-40 | – | 22.5
5 | NCCCCCC(=O)O [Aminocaproic Acid] | 184.3 % of ctl | 90.4 % of ctl | 90.4 % of ctl | 124 | 124.4 % of ctl | 80.3 % of ctl | 80.3 % of ctl | 184 | – | – | – | – | – | – | – | – | – | –
6 | CO[C@H]1[C@H](O)[C@H](O[C@H]2CC[C@@]3(C=O)[C@H](CC[C@@H]4[C@@H]3CC[C@]3(C)[C@@H](C5=CC(=O)OC5)CC[C@]43O)C2)O[C@@H](C)[C@@H]1O [Peruvoside] | 90.9 % of ctl | 105.5 % of ctl | 105.5 % of ctl | 115 | 115.3 % of ctl | 98.8 % of ctl | 98.8 % of ctl | 90.9 | – | – | – | – | – | – | – | – | – | –
